The text below walks through data of US20220298143A1, “Pyrazole Derivatives for FGFR Inhibitor and Preparation Method Thereof” (Etern Biopharma (Shanghai) Co., Ltd., priority 2019, published 2022).

The target of one data set is T1, FGFR1 (Homo sapiens, UniProt P11362).
T1 construct: purchased Cama (sic; Carna) 08-133
As to the kind of experiment: Enzymatic activity test of FGFR inhibitor, Caliper model. It counts as biochemical.

In a further data set the target is FGFR2 (Homo sapiens, UniProt P21802). The data set is described as above. It counts as biochemical. The conditions noted are these: kinase pre-incubation 10 minutes.
Sequence of FGFR2 (P21802 22-821): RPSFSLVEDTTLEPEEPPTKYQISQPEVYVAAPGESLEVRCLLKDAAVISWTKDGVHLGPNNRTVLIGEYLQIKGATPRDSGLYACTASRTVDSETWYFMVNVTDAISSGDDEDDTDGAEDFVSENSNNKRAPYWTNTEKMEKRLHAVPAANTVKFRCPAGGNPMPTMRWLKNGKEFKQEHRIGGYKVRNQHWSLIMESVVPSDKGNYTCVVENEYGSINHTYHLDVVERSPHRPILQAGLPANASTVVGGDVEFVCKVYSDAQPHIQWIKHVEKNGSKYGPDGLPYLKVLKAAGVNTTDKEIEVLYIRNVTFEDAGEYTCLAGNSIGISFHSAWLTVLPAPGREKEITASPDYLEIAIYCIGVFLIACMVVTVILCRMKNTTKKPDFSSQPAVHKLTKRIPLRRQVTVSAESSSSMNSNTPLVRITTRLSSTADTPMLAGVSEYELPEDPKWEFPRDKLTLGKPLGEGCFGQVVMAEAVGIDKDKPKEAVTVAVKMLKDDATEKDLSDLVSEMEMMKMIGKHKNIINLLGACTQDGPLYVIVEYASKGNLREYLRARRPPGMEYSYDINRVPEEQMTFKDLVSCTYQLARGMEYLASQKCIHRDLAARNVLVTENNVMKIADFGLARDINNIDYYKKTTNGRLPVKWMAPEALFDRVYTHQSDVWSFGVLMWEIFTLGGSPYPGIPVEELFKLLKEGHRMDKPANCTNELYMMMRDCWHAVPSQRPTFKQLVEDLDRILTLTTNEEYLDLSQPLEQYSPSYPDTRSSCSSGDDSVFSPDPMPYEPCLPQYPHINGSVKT
A further data set deals with FGFR3 (Homo sapiens, UniProt P22607). The data set is described as above. It counts as biochemical. The conditions noted are these: kinase pre-incubation 10 minutes.
Sequence of FGFR3 (P22607 23-806): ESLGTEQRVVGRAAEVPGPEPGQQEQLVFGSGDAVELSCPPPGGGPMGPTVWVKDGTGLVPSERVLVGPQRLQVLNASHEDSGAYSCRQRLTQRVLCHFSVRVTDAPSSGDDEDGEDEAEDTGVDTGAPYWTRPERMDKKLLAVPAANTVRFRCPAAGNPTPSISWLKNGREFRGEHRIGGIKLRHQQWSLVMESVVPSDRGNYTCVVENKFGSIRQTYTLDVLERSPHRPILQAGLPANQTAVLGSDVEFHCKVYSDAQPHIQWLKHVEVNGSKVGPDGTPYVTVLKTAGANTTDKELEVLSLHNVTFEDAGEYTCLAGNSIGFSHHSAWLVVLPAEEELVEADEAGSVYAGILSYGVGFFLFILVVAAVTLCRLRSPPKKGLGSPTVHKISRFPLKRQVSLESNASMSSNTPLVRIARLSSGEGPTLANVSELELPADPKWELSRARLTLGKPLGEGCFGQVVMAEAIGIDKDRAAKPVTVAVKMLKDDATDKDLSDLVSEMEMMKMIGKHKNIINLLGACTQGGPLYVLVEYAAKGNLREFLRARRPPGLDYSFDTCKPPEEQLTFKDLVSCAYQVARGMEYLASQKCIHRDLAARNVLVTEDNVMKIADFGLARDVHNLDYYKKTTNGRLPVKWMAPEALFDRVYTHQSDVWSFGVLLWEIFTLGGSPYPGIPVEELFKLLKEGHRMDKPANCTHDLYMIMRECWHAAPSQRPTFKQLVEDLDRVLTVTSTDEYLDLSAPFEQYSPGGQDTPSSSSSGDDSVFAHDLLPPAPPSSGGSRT
In the next data set the target is T2, FGFR4 (Homo sapiens, UniProt P22455).
T2 construct: purchased Invitrogen PR4380A
T2 sequence (P22455 22-802): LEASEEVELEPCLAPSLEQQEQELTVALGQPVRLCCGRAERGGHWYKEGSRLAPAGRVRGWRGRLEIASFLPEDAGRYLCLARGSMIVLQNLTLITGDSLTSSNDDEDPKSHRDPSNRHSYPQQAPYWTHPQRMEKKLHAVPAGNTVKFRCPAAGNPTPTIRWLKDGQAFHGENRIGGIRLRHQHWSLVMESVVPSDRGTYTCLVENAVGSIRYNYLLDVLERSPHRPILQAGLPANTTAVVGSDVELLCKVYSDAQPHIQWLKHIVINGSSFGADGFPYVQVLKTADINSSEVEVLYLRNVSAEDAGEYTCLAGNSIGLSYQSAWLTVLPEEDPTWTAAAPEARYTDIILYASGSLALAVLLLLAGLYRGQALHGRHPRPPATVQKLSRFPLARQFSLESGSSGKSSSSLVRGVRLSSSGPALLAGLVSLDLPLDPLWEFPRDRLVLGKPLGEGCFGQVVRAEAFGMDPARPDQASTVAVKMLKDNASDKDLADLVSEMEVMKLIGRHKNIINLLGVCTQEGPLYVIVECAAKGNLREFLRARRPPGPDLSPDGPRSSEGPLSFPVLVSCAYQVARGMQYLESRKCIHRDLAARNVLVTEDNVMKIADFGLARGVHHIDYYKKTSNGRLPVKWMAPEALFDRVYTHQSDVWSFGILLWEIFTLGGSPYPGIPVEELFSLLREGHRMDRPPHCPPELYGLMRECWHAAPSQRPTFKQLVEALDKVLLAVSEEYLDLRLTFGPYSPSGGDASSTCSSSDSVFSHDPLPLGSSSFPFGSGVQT
Described as above. It counts as biochemical.

The test system of another data set is Hep3B cells. Briefly: Human liver cancer cell Hep3B survival test (CellTiter-Glo). In kind it is cell-based. As to conditions: 72 hours compound treatment. The method, then: Human Liver Cancer Cell Hep3B Survival Test
The human liver cancer Hep3B cell line was from ATCC. The cells were cultured in DMEM liquid medium, and fetal bovine serum (10% FBS) and penicillin-streptomycin (100,000 U/L) were added. The cells were kept at 37° C., 95% humidity and 5% carbon dioxide in the culture medium. During the experiment, Hep3B cells were seeded in a 96-well plate at a density of 3000 cells per well. The volume of the cell suspension was 100 μL per well, and the cells were cultured overnight to attach the cells. The next day, each compound was diluted with DMSO in a three-fold gradient, and 1 μL of the solution of the compound in DMSO was added to the cell culture medium. At the same time, 1 μL of DMSO was used as a control. Three parallel sub-wells were set for each concentration of each compound. Then the cells were placed in a 37° C. incubator. After 72 hours of continuous compound treatment, 50 μL CellTiter-Glo (Promega, Madison Wis.) was added to the cell culture medium. The relative luminescence unit (RLU) of each well was determined and the cell survival rate and compound activity (IC50) were calculated.
On the technique in general: ATP-based viability assays read luminescence as a measure of living cells.

Data set [1] can be described thus: Compound pharmacokinetic experiment, single intragastric administration. It counts as in vivo. The conditions noted are these: mouse, plasma, male mice, oral dosage 15 mg/Kg; for Cmax: read-out: Peak plasma concentration Cmax; for AUC: read-out: Plasma exposure AUC. The method, then: Compound Pharmacokinetic Experiment
The pharmacokinetics of the compounds of the present disclosure was determined. This application used the following methods to determine the pharmacokinetic parameters of the compounds.
For the healthy male adult mice used in the study, each group of animals was given a single intragastric administration of 5-100 mg/Kg. Fasting was from 10 hours before administration to 4 hours after administration. Blood was collected at different time points after administration, and the plasma content of the compound was determined (LC-MS/MS). The plasma concentration-time relationship was analyzed with professional software (winnonlin) to calculate the pharmacokinetic parameters of the compound.

Where [2] appears, read: Caliper, kinase pre-incubation 10 minutes, read-out: FGFR1.
Setting [3] is: Caliper, kinase pre-incubation 10 minutes, read-out: FGFR4.

Where two headings read alike, the source gives them in different places.

T1 sequence (P11362 22-822): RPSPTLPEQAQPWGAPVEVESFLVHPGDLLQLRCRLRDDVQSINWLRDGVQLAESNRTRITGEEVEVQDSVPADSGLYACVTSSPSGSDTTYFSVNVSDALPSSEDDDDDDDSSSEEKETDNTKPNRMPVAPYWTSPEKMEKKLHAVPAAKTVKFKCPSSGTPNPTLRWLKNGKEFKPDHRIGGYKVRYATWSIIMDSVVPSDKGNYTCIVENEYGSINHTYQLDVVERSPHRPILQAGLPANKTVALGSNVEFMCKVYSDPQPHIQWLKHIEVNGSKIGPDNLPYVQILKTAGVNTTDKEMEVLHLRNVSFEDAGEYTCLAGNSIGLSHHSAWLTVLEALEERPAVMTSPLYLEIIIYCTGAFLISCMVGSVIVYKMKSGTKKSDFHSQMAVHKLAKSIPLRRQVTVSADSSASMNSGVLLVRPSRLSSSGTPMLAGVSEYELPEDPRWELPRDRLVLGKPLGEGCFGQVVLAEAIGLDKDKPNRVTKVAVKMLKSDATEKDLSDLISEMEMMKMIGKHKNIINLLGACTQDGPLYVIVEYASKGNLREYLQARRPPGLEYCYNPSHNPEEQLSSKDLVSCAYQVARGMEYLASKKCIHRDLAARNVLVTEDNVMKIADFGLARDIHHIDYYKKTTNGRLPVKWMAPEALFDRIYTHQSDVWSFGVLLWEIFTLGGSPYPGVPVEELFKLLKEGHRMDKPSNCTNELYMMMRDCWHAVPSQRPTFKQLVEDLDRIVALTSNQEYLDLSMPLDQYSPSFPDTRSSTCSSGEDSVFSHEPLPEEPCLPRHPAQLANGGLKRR
Experimental for FGFR1: (§1) Enzymatic Activity Test of FGFR Inhibitor-Caliper Model
(§2) The specific operation steps were as follows:
(§3) The compound was first serially diluted in 5% DMSO solution, and 5 μL of the compound solution was added to a 384-well plate. The maximum final concentration of the compound is 1 μM, being diluted three times with 10 concentrations.
(§4) 10 μL of kinase solution was added to the 384-well plate and incubated at room temperature for 10 minutes;
(§5) 10 μL of P22 peptide and ATP solution were added to the 384-well plate, and 25 μL of reaction stop buffer was added after a specific time at 28° C.;
(§6) The data was collected in Caliper read and the inhibition rate was calculated according to inhibition rate=(max−conversion)/(max−min)*100, where max is DMSO control, conversion is the reading of the compound treated group, and min is the maximum inhibition control. IC50 value of the compound was calculated with XLfit excel add-in version 5.4.0.8 software.
Experimental for FGFR2: as §1, §2, §3, §4, §5, §6
Experimental for FGFR4: as §1, §2, §3, §4, §5, §6

As for `C=CC(=O)Nc1cc(N2CCC(F)(F)CC2)ccc1C(=O)Nc1cc(CCc2cc(OC)cc(OC)c2)n[nH]1` [Compound 7, 2-acrylamido-4-(4,4-difluoropiperidin-1-yl)-N-(3-(3,5-dimethoxyphenethyl)-1H-pyrazol-5-yl)benzamide], the IC50 is 2.1 nM on FGFR1 (setting [2]); 3.4 nM at FGFR2; 2.3 nM on FGFR3; 3.2 nM on FGFR4 (setting [3]); 6 nM with Hep3B cells.

On to `C=CC(=O)Nc1cc(OCCC(F)(F)F)ccc1C(=O)Nc1cc(CCc2cc(OC)cc(OC)c2)n[nH]1` [Compound 9, 2-acrylamido-N-(3-(3,5-dimethoxyphenethyl)-1H-pyrazol-5-yl)-4-(3,3,3-trifluoropropoxy)benzamide], for which the IC50 amounted to 3.1 nM at FGFR1 (setting [2]); 4.4 nM against FGFR2; 4.4 nM against FGFR3; 3.6 nM on FGFR4 (setting [3]); 2 nM in the data set with Hep3B cells.

Take `C=CC(=O)Nc1cc(N2CCN(CCC(F)(F)F)C(C)C2)ccc1C(=O)Nc1cc(CCc2cc(OC)cc(OC)c2)n[nH]1` (stereo not shown) [Compound 12, 2-acrylamido-N-(3-(3,5-dimethoxyphenethyl)-1H-pyrazol-5-yl)-4-(3-methyl-4-(3,3,3-trifluoropropyl)piperazin-1-yl)benzamide]: the IC50 came out at 2.7 nM at FGFR1 (setting [2]); 4.1 nM against FGFR2; 3 nM against FGFR3; 3.9 nM on FGFR4 (setting [3]); 0.5 nM in the data set with Hep3B cells. For the same molecule, in data set [1], the Cmax came to 663 nM. Also, the AUC in data set [1] is 1.42 µM·h.

With `C=CC(=O)Nc1cc(N2CCN(CC(F)(F)C(F)(F)F)CC2)ccc1C(=O)Nc1cc(CCc2cc(OC)cc(OC)c2)n[nH]1` [Compound 14, 2-acrylamido-N-(3-(3,5-dimethoxyphenethyl)-1H-pyrazol-5-yl)-4-(4-(2,2,3,3,3-pentafluoropropyl)piperazin-1-yl)benzamide], the IC50 on FGFR1 (setting [2]) was 6.1 nM; against FGFR2, 5.9 nM; on FGFR3, 5.8 nM; on FGFR4 (setting [3]), 5.9 nM; in the data set on Hep3B cells, 7 nM. The Cmax in data set [1] is 344 nM. Moreover, the AUC in data set [1] worked out at 1.15 µM·h.

Turning to `C=CC(=O)Nc1cc(N2CCN(CCC(F)(F)F)CC2)c(OC)cc1C(=O)Nc1cc(CCc2cc(OC)cc(OC)c2)n[nH]1` [Compound 10, 2-acrylamido-N-(3-(3,5-dimethoxyphenethyl)-1H-pyrazol-5-yl)-5-methoxy-4-(4-(3,3,3-trifluoropropyl)piperazin-1-yl)benzamide], the IC50 on FGFR1 (setting [2]) is 5.7 nM; against FGFR2, 6.1 nM; against FGFR3 it was 7.4 nM; at FGFR4 (setting [3]), 4.4 nM; in the data set on Hep3B cells, 3 nM. Moreover, the Cmax in data set [1] was 1250 nM. Besides, the AUC in data set [1] turned out to be 2.41 µM·h.

Turning to `C=CC(=O)Nc1cc(OCC(F)(F)F)ccc1C(=O)Nc1cc(CCc2cc(OC)cc(OC)c2)n[nH]1` [Compound 5, 2-acrylamido-N-(3-(3,5-dimethoxyphenethyl)-1H-pyrazol-5-yl)-4-(2,2,2-trifluoroethoxy)benzamide], the IC50 at FGFR1 (setting [2]) stood at 2.7 nM; at FGFR2, 2.7 nM; against FGFR3, 2.4 nM; on FGFR4 (setting [3]), 2.5 nM; with Hep3B cells, 9 nM.

As for `C=CC(=O)Nc1ccccc1C(=O)Nc1cc(CCc2cc(OC)cc(OC)c2)[nH]n1` [Control a, 2-acrylamido-N-(3-(3,5-dimethoxyphenethyl)-1H-pyrazol-5-yl)benzamide, reference compound], the IC50 on FGFR1 (setting [2]) came to 4.5 nM; at FGFR2 it was 2.2 nM; at FGFR3, 1.7 nM; in the data set with Hep3B cells, 5 nM. Further, the Cmax in data set [1] was 377 nM. In addition, the AUC in data set [1] came to 0.404 µM·h.

In the case of `C=CC(=O)Nc1cc(N2CCC(F)(F)C2)ccc1C(=O)Nc1cc(CCc2cc(OC)cc(OC)c2)n[nH]1` [Compound 8, 2-acrylamido-4-(3,3-difluoropyrrolidin-1-yl)-N-(3-(3,5-dimethoxyphenethyl)-1H-pyrazol-5-yl)benzamide], the IC50 is 2.7 nM at FGFR1 (setting [2]); 2.8 nM at FGFR2; 2.3 nM on FGFR3; 2.7 nM on FGFR4 (setting [3]); 8 nM in the data set with Hep3B cells.

In the data set with Hep3B cells, `COc1cc(CCc2cc(NC(=O)c3ccc(N4C[C@@H](C)N[C@@H](C)C4)cc3)n[nH]2)cc(OC)c1` [AZD4547, reference compound] gave an IC50 of 263 nM.

On to `C=CC(=O)Nc1cc(N2CCN(CC(F)(F)F)CC2)ccc1C(=O)Nc1cc(CCc2cc(OC)cc(OC)c2)n[nH]1` [Compound 2, 2-acrylamide-N-(3-(3,5-dimethoxyphenethyl)-1H-pyrazol-5-yl)-4-(4-(2,2,2-trifluoroethyl)piperazin-1-yl) benzamide], for which the IC50 on FGFR1 (setting [2]) came to 3.3 nM; against FGFR2, 3.7 nM; at FGFR3, 2.8 nM; at FGFR4 (setting [3]) it was 3.3 nM; in the data set on Hep3B cells, 0.8 nM. Further, the Cmax in data set [1] was found to be 2580 nM. In addition, the area under the curve (AUC) in data set [1] amounted to 7.52 µM·h.

`C=CC(=O)Nc1cc(N2CCN(CCC(F)(F)F)CC2)cnc1C(=O)Nc1cc(CCc2cc(OC)cc(OC)c2)n[nH]1` [Compound 15, 3-acrylamido-N-(3-(3,5-dimethoxyphenethyl)-1H-pyrazol-5-yl)-5-(4-(3,3,3-trifluoropropyl)piperazin-1-yl)pyridinecarboxamide]: the IC50 on FGFR1 (setting [2]) is 4.8 nM; against FGFR2, 4.5 nM; against FGFR3 it was 3.9 nM; on FGFR4 (setting [3]), 4.4 nM; in the data set on Hep3B cells, 12 nM.

In the case of `C=CC(=O)Nc1cc(N2CCN(CC(F)F)CC2)ccc1C(=O)Nc1cc(CCc2cc(OC)cc(OC)c2)n[nH]1` [Compound 3, 2-acrylamide-4-(4-(2,2-difluoroethyl)piperazin-1-yl)-N-(3-(3,5-dimethoxyphenethyl)-1H-pyrazol-5-yl)benzamide], the IC50 against FGFR1 came to 3.6 nM; against FGFR2, 5.3 nM; on FGFR3 it was 4.6 nM; at FGFR4 it was 5.7 nM; in the data set with Hep3B cells, 3 nM.

Regarding `C=CC(=O)Nc1cc(N(C)CCC(F)(F)F)ccc1C(=O)Nc1cc(CCc2cc(OC)cc(OC)c2)n[nH]1` [Compound 13, 2-acrylamido-N-(3-(3,5-dimethoxyphenethyl)-1H-pyrazol-5-yl)-4-(methyl(3,3,3-trifluoropropyl)amino)benzamide], the IC50 on FGFR1 (setting [2]) came out at 3.4 nM; against FGFR2 it was 4.9 nM; at FGFR3, 3.1 nM; at FGFR4 (setting [3]), 3.8 nM; in the data set with Hep3B cells it was 12 nM.

In the case of `C=CC(=O)Nc1cc(N2CC(F)(F)C2)ccc1C(=O)Nc1cc(CCc2cc(OC)cc(OC)c2)n[nH]1` [Compound 6, 2-acrylamido-4-(3,3-difluoroazetidin-1-yl)-N-(3-(3,5-dimethoxyphenethyl)-1H-pyrazole-5-yl)benzamide], the IC50 amounted to 2.4 nM at FGFR1 (setting [2]); 2.3 nM against FGFR2; 1.7 nM against FGFR3; 2 nM at FGFR4 (setting [3]); 3 nM in the data set with Hep3B cells.

`C=CC(=O)Nc1cc(N2CCN(CCC(F)(F)F)CC2)cc(F)c1C(=O)Nc1cc(CCc2cc(OC)cc(OC)c2)n[nH]1` [Compound 16, 2-acrylamido-N-(3-(3,5-dimethoxyphenethyl)-1H-pyrazol-5-yl)-6-fluoro-4-(4-(3,3,3-trifluoropropyl)piperazin-1-yl)benzamide] came in with an IC50 in the data set on Hep3B cells of 0.3 nM.

The term AUC denotes the area under the concentration-time curve, a measure of exposure.
